Assay results from patent publication US7943616B2, “Azaindoles for inhibiting aurora2 and other kinases” (Aventis Pharmaceuticals Inc., priority 2001, dated 2011).

SMILES | melting point [°C]
CC(C)(C)c1ccc(-c2[nH]c3nccnc3c2CCCO)cc1 [Example 26, 3-[6-(4-tert-Butyl-phenyl)-5H-pyrrolo[2,3-b]pyrazin-7-yl]-propan-1-ol] | 187 to 189
CC(C)(C)c1ccc(-c2[nH]c3nccnc3c2CCC#N)cc1 [Example 23] | 215 to 216
CCOC(=O)COc1cc(-c2cc3nccnc3[nH]2)ccc1OC [Example 27, [2-Methoxy-5-(5H-pyrrolo[2,3-b]pyrazin-6-yl)-phenoxy]acetic Acid Ethyl Ester] | 183 to 184
c1cncc(OCCCn2cc(-c3cc4nccnc4[nH]3)c3ccccc32)c1 [Example 6, 6-{1-[3-(Pyridin-3-yloxy)-propyl]-1H-indol-3-yl}-5H-pyrrolo[2,3-b]pyrazine] | 208 to 209
Cn1cc(-c2cc3nccnc3[nH]2)c2cc(O)ccc21 [Example 7, 1-methyl-3-(5H-pyrrolo[2,3-b]pyrazin-6-yl)-1H-indol-5-ol] | 289 to 290
COc1ccc2[nH]cc(-c3cc4nccnc4[nH]3)c2c1 [Example 11, 6-(5-methoxy-1H-indol-3-yl)-5H-pyrrolo[2,3-b]pyrazine] | 268 to 271
COc1ccc2[nH]cc(-c3cc4c(C(N)=O)ccnc4[nH]3)c2c1 [Example 42, 2-(5-Methoxy-1H-indol-3-yl)-1H-pyrrolo[2,3-b]pyridine-4 Carboxamide] | > 320
Cn1cc(-c2cc3cccnc3[nH]2)c2cc(N)ccc21 [Example 18, 1-Methyl-3-(1H-pyrrolo[2,3-b]pyridin-2-yl)-1H-indol-5-ylamine] | 247 to 248
